Data from PubChem BioAssay (NCI).
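Five concentrations, 48 hours, 96-well plates. Abbreviation: GI50, concentration required for 50% inhibition of growth. TGI is the concentration that stops growth completely.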

Legend:
Test in all cases: NCI-60 cell line screen, 48 h
T-47D breast = test system: T-47D breast
COLO 205 colon = test system: COLO 205 colon
SK-MEL-28 melanoma = test system: SK-MEL-28 melanoma
NCI-H226 lung = test system: NCI-H226 lung
IGROV1 ovarian = test system: IGROV1 ovarian
HL-60(TB) leukemia = test system: HL-60(TB) leukemia
HCT-15 colon = test system: HCT-15 colon
NCI-H460 lung = test system: NCI-H460 lung
RXF 393 renal = test system: RXF 393 renal
MALME-3M melanoma = test system: MALME-3M melanoma
OVCAR-5 ovarian = test system: OVCAR-5 ovarian
HCT-116 colon = test system: HCT-116 colon
CCRF-CEM leukemia = test system: CCRF-CEM leukemia
UACC-62 melanoma = test system: UACC-62 melanoma
SN12C renal = test system: SN12C renal
MOLT-4 leukemia = test system: MOLT-4 leukemia
K-562 leukemia = test system: K-562 leukemia
HCC-2998 colon = test system: HCC-2998 colon
786-0 renal = test system: 786-0 renal
RPMI-8226 leukemia = test system: RPMI-8226 leukemia
SK-OV-3 ovarian = test system: SK-OV-3 ovarian
SK-MEL-5 melanoma = test system: SK-MEL-5 melanoma
SF-295 CNS = test system: SF-295 CNS
SNB-19 CNS = test system: SNB-19 CNS
UO-31 renal = test system: UO-31 renal
NCI-H522 lung = test system: NCI-H522 lung
SF-268 CNS = test system: SF-268 CNS
M14 melanoma = test system: M14 melanoma
OVCAR-3 ovarian = test system: OVCAR-3 ovarian
KM12 colon = test system: KM12 colon
CAKI-1 renal = test system: CAKI-1 renal
HS 578T breast = test system: HS 578T breast
TK-10 renal = test system: TK-10 renal
HOP-62 NSCLC = test system: HOP-62 NSCLC
EKVX NSCLC = test system: EKVX NSCLC
SK-MEL-2 melanoma = test system: SK-MEL-2 melanoma
OVCAR-8 ovarian = test system: OVCAR-8 ovarian
MDA-MB-231 breast = test system: MDA-MB-231 breast
OVCAR-4 ovarian = test system: OVCAR-4 ovarian
A498 renal = test system: A498 renal
SNB-75 CNS = test system: SNB-75 CNS
NCI-H23 lung = test system: NCI-H23 lung
LOX IMVI melanoma = test system: LOX IMVI melanoma
SR leukemia = test system: SR leukemia
SF-539 CNS = test system: SF-539 CNS
SW-620 colon = test system: SW-620 colon
ACHN renal = test system: ACHN renal
PC-3 prostate = test system: PC-3 prostate
NCI/ADR-RES ovarian = test system: NCI/ADR-RES ovarian
U251 CNS = test system: U251 CNS
UACC-257 melanoma = test system: UACC-257 melanoma
BT-549 breast = test system: BT-549 breast
A549 NSCLC = test system: A549 NSCLC
MCF7 breast = test system: MCF7 breast
DU-145 prostate = test system: DU-145 prostate
MDA-MB-435 = test system: MDA-MB-435
HT29 colon = test system: HT29 colon

SMILES: ClCc1ccccc1Cn1cnc2c(Cl)nc(Cl)nc21
- GI50 (T-47D breast): 1990 nM
- TGI (T-47D breast): 5460 nM
- GI50 (COLO 205 colon): 163 nM
- TGI (COLO 205 colon): 362 nM
- GI50 (SK-MEL-28 melanoma): 942 nM
- TGI (SK-MEL-28 melanoma): 2480 nM
- GI50 (NCI-H226 lung): 603 nM
- TGI (NCI-H226 lung): 1590 nM
- GI50 (IGROV1 ovarian): 996 nM
- TGI (IGROV1 ovarian): 2530 nM
- GI50 (HL-60(TB) leukemia): 181 nM
- TGI (HL-60(TB) leukemia): 1350 nM
- TGI (HCT-15 colon): 139 nM
- GI50 (NCI-H460 lung): 2290 nM
- TGI (NCI-H460 lung): 7150 nM
- GI50 (RXF 393 renal): 1460 nM
- TGI (RXF 393 renal): 3010 nM
- GI50 (MALME-3M melanoma): 1220 nM
- TGI (MALME-3M melanoma): 3590 nM
- GI50 (OVCAR-5 ovarian): 471 nM
- TGI (OVCAR-5 ovarian): 1210 nM
- GI50 (HCT-116 colon): 60.5 nM
- TGI (HCT-116 colon): 188 nM
- GI50 (CCRF-CEM leukemia): 31.3 nM
- TGI (CCRF-CEM leukemia): 93.9 nM
- GI50 (UACC-62 melanoma): 408 nM
- TGI (UACC-62 melanoma): 865 nM
- GI50 (SN12C renal): 362 nM
- TGI (SN12C renal): 1020 nM
- GI50 (MOLT-4 leukemia): 574 nM
- TGI (MOLT-4 leukemia): 1590 nM
- GI50 (K-562 leukemia): 189 nM
- TGI (K-562 leukemia): 1940 nM
- GI50 (HCC-2998 colon): 315 nM
- TGI (HCC-2998 colon): 1320 nM
- GI50 (786-0 renal): 167 nM
- TGI (786-0 renal): 634 nM
- GI50 (RPMI-8226 leukemia): 139 nM
- TGI (RPMI-8226 leukemia): 501 nM
- GI50 (SK-OV-3 ovarian): 1950 nM
- TGI (SK-OV-3 ovarian): 3700 nM
- GI50 (SK-MEL-5 melanoma): 104 nM
- TGI (SK-MEL-5 melanoma): 501 nM
- GI50 (SF-295 CNS): 1580 nM
- TGI (SF-295 CNS): 3110 nM
- GI50 (SNB-19 CNS): 1040 nM
- TGI (SNB-19 CNS): 2240 nM
- GI50 (UO-31 renal): 379 nM
- TGI (UO-31 renal): 1440 nM
- GI50 (NCI-H522 lung): 964 nM
- TGI (NCI-H522 lung): 2600 nM
- GI50 (SF-268 CNS): 115 nM
- TGI (SF-268 CNS): 556 nM
- GI50 (M14 melanoma): 453 nM
- TGI (M14 melanoma): 1070 nM
- GI50 (OVCAR-3 ovarian): 547 nM
- TGI (OVCAR-3 ovarian): 1170 nM
- GI50 (KM12 colon): 1480 nM
- TGI (KM12 colon): 2950 nM
- GI50 (CAKI-1 renal): 728 nM
- TGI (CAKI-1 renal): 1590 nM
- GI50 (HS 578T breast): 1190 nM
- TGI (HS 578T breast): 3550 nM
- GI50 (TK-10 renal): 1020 nM
- TGI (TK-10 renal): 2490 nM
- GI50 (HOP-62 NSCLC): 1380 nM
- TGI (HOP-62 NSCLC): 2780 nM
- GI50 (EKVX NSCLC): 332 nM
- TGI (EKVX NSCLC): 811 nM
- GI50 (SK-MEL-2 melanoma): 2250 nM
- TGI (SK-MEL-2 melanoma): 4720 nM
- GI50 (OVCAR-8 ovarian): 1440 nM
- TGI (OVCAR-8 ovarian): 2980 nM
- TGI (MDA-MB-231 breast): 295 nM
- GI50 (OVCAR-4 ovarian): 1030 nM
- TGI (OVCAR-4 ovarian): 2550 nM
- GI50 (A498 renal): 2050 nM
- TGI (A498 renal): 4000 nM
- GI50 (SNB-75 CNS): 892 nM
- TGI (SNB-75 CNS): 2140 nM
- GI50 (NCI-H23 lung): 485 nM
- TGI (NCI-H23 lung): 1020 nM
- GI50 (LOX IMVI melanoma): < 39.5 nM
- TGI (LOX IMVI melanoma): 169 nM
- GI50 (SR leukemia): 1770 nM
- TGI (SR leukemia): 4930 nM
- GI50 (SF-539 CNS): 170 nM
- TGI (SF-539 CNS): 467 nM
- GI50 (SW-620 colon): < 39.2 nM
- TGI (SW-620 colon): 64.7 nM
- GI50 (ACHN renal): 78.5 nM
- TGI (ACHN renal): 316 nM
- GI50 (PC-3 prostate): 425 nM
- TGI (PC-3 prostate): 1610 nM
- GI50 (NCI/ADR-RES ovarian): 552 nM
- TGI (NCI/ADR-RES ovarian): 1330 nM
- GI50 (U251 CNS): 222 nM
- TGI (U251 CNS): 602 nM
- GI50 (UACC-257 melanoma): 1900 nM
- TGI (UACC-257 melanoma): 4000 nM
- GI50 (BT-549 breast): 460 nM
- TGI (BT-549 breast): 1500 nM
- GI50 (A549 NSCLC): 2820 nM
- TGI (A549 NSCLC): 8800 nM
- GI50 (MCF7 breast): 118 nM
- TGI (MCF7 breast): > 100000 nM
- GI50 (DU-145 prostate): 207 nM
- TGI (DU-145 prostate): 743 nM
- GI50 (MDA-MB-435): 1640 nM
- TGI (MDA-MB-435): 3270 nM

SMILES: Cc1cc2c(c(S(=O)(=O)c3ccc(Cl)cc3[N+](=O)[O-])c1)NCCC2
- TGI (T-47D breast): > 100000 nM
- TGI (COLO 205 colon): > 100000 nM
- TGI (SK-MEL-28 melanoma): > 100000 nM
- TGI (NCI-H226 lung): > 100000 nM
- TGI (HT29 colon): > 100000 nM
- TGI (IGROV1 ovarian): > 100000 nM
- TGI (HCT-15 colon): > 100000 nM
- TGI (NCI-H460 lung): > 100000 nM
- TGI (RXF 393 renal): > 100000 nM
- TGI (MALME-3M melanoma): > 100000 nM
- TGI (OVCAR-5 ovarian): > 100000 nM
- TGI (UACC-62 melanoma): > 100000 nM
- TGI (SN12C renal): > 100000 nM
- TGI (HCC-2998 colon): > 100000 nM
- TGI (786-0 renal): > 100000 nM
- TGI (RPMI-8226 leukemia): > 100000 nM
- TGI (SK-OV-3 ovarian): > 100000 nM
- TGI (SK-MEL-5 melanoma): > 100000 nM
- TGI (SF-295 CNS): > 100000 nM
- TGI (SNB-19 CNS): > 100000 nM
- TGI (UO-31 renal): > 100000 nM
- TGI (NCI-H522 lung): > 100000 nM
- TGI (SF-268 CNS): > 100000 nM
- TGI (M14 melanoma): > 100000 nM
- TGI (OVCAR-3 ovarian): > 100000 nM
- TGI (KM12 colon): > 100000 nM
- TGI (HS 578T breast): > 100000 nM
- TGI (TK-10 renal): > 100000 nM
- TGI (HOP-62 NSCLC): > 100000 nM
- TGI (EKVX NSCLC): > 100000 nM
- TGI (SK-MEL-2 melanoma): > 100000 nM
- TGI (OVCAR-8 ovarian): > 100000 nM
- TGI (MDA-MB-231 breast): > 100000 nM
- TGI (OVCAR-4 ovarian): > 100000 nM
- TGI (A498 renal): > 100000 nM
- TGI (SNB-75 CNS): > 100000 nM
- TGI (NCI-H23 lung): > 100000 nM
- TGI (LOX IMVI melanoma): > 100000 nM
- TGI (SR leukemia): > 100000 nM
- TGI (SF-539 CNS): > 100000 nM
- TGI (SW-620 colon): > 100000 nM
- TGI (ACHN renal): > 100000 nM
- TGI (PC-3 prostate): > 100000 nM
- TGI (NCI/ADR-RES ovarian): > 100000 nM
- TGI (U251 CNS): > 100000 nM
- TGI (BT-549 breast): > 100000 nM
- TGI (A549 NSCLC): > 100000 nM
- TGI (MCF7 breast): > 100000 nM
- TGI (DU-145 prostate): > 100000 nM
- TGI (MDA-MB-435): > 100000 nM
